In publication PMC2212779 (The Journal of Experimental Medicine, 2005):
Ends that are not written are not given here.

molecular target: H-2K^b (Mus musculus, UniProt P01901); assay: biochemical; format: binding; conditions: not given
Sequence (P01901 22-369): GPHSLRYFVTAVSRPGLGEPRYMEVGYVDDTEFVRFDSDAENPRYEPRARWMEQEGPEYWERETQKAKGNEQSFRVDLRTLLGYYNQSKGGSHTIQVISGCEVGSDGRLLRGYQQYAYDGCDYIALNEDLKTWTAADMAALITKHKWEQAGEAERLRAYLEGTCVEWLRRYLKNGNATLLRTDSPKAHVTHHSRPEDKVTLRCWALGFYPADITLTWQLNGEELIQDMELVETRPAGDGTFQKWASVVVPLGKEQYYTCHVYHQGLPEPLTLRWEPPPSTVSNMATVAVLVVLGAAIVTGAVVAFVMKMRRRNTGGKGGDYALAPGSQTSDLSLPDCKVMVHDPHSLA
Sequence (P61769 21-119, further chain): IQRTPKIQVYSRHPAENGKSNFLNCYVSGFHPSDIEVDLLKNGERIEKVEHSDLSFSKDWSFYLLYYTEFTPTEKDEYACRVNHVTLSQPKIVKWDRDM

**Q.** For ISLKNYGI [ISLKNYGI], which IC50 is on record?
**A.** 16 nM

**Q.** With KVEEYCTGL [KVEEYCTGL] as the sequence, how does the IC50 read?
**A.** 129 nM

**Q.** For LAVLFINSI [LAVLFINSI], which IC50 is on record?
**A.** 28 nM

**Q.** With TSYKFESV [B8R20-27] as the sequence, how does the IC50 read?
**A.** 0.19 nM

**Q.** With WQTMYTNV [WQTMYTNV] as the sequence, how does the IC50 read?
**A.** 6.6 nM

molecular target: H-2D^b (Mus musculus, UniProt P01899); assay: not given; conditions: read-out: average IC50 of the radiolabeled standard peptide; cited from earlier work
Sequence (P01899 25-362): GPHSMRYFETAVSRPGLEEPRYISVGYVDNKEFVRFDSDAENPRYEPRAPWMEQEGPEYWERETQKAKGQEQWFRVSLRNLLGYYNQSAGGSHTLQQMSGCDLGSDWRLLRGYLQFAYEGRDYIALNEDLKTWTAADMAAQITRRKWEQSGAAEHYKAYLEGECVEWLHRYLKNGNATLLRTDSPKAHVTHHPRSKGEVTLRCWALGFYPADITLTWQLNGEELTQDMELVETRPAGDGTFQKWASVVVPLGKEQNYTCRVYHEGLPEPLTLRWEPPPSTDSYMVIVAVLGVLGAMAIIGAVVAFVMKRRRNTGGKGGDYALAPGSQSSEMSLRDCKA
Sequence (P61769 21-119, further chain): as the sequence (P61769 21-119, further chain) above

**Q.** Which IC50 does the source give for SGPSNTYPEI here?
**A.** 4.4 nM
